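Values below derive from 48-hour exposures of cells grown in 96-well plates, with endpoints linearly interpolated between the two concentrations bracketing the appropriate inhibition level. The concentration for 50% growth inhibition is given as GI50.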 Activity calls are given as the source filed them. Rule as the data show it: active = GI50 up to about 1.1 µM and inactive = higher.

Some test systems named below: NCI-H226; 786-0; A498; COLO 205; SF-268; KM12; SNB-75; HCT-15; PC-3; SK-MEL-2; SNB-19; SF-295; KM-20L2; TK-10; OVCAR-4; CCRF-CEM; SW-620; Hs-578T; MOLT-4; MDA-N.
Holding throughout (test): NCI tumour cell line growth inhibition, 48 h

As to `NCCSCC(N)C(=O)O` (centres undefined), the GI50 was > 497 µM (inactive) with NCI-H226; 83.4 µM (inactive) with 786-0; > 497 µM (inactive) with A498; > 75.9 µM (inactive) in the assay with COLO 205; > 497 µM (inactive) with SF-268; 38 µM (inactive) in the assay on KM12. Further, the GI50 is > 40.4 µM (inactive) in the assay with SNB-75; above 87.5 µM in the assay on HCT-15; > 100 µM (inactive) in the assay with PC-3; > 497 µM (inactive) in the assay with SK-MEL-2; > 497 µM (inactive) in the assay with SNB-19; > 497 µM (inactive) in the assay on SF-295. Moreover, the GI50 is > 497 µM (inactive) in the assay on KM-20L2; > 497 µM (inactive) in the assay with TK-10; > 497 µM (inactive) in the assay on OVCAR-4; 29 µM (inactive) with CCRF-CEM; 46.8 µM (inactive) with SW-620; > 95.1 µM (inactive) with Hs-578T. The GI50 in the assay on MOLT-4 is > 497 µM (inactive).

For the compound `C=C[C@@H](C)[C@]1(C(=O)OC)CCCC12OCCO2`, the GI50 in the assay on NCI-H226 is > 100 µM (inactive); in the assay with 786-0, 63.8 µM (inactive); in the assay on A498, > 100 µM (inactive); in the assay on COLO 205 it was > 100 µM (inactive); in the assay on SF-268, > 100 µM (inactive); with KM12 it was > 100 µM (inactive). Besides, the GI50 is > 100 µM (inactive) in the assay with SNB-75; 94.2 µM in the assay with HCT-15; > 100 µM (inactive) in the assay with SK-MEL-2; > 100 µM (inactive) with SNB-19; > 100 µM (inactive) with SF-295; > 100 µM (inactive) in the assay on KM-20L2. For the same compound, the GI50 in the assay with TK-10, with OVCAR-4, with CCRF-CEM and with MOLT-4 was > 100 µM (inactive) each time.

For the compound `O=c1/c(=C/c2ccc3c(c2)OCO3)sc2nnc(Cc3ccccc3)n12`, the GI50 in the assay on NCI-H226, in the assay with 786-0, in the assay with A498, in the assay on COLO 205, in the assay on SF-268 and in the assay on KM12 was > 100 µM (inactive) in each case. Moreover, the GI50 in the assay on SNB-75 was 61.1 µM (inactive); in the assay on HCT-15, above 100 µM; with SK-MEL-2, > 100 µM (inactive); with SNB-19, > 100 µM (inactive); with SF-295 it was > 100 µM (inactive); with KM-20L2 it was > 100 µM (inactive). The GI50 with TK-10 is > 100 µM (inactive); with OVCAR-4, > 100 µM (inactive); in the assay with CCRF-CEM, 81.5 µM (inactive); with SW-620, > 100 µM (inactive); with MOLT-4 it was > 100 µM (inactive).

`O=C(NC(=O)c1c(Cl)nc2sccn12)Nc1ccc(Cl)cc1`: the GI50 with NCI-H226 was 45.2 µM (inactive); with 786-0 it was 35.4 µM (inactive); with A498, 49.3 µM (inactive); in the assay on MDA-N, > 100 µM (inactive); with COLO 205, > 100 µM (inactive); in the assay with SF-268 it was 26.2 µM (inactive). The GI50 in the assay on KM12 was > 93.5 µM (inactive); in the assay with SNB-75 it was 19.9 µM (inactive); in the assay with HCT-15, above 96.4 µM; in the assay with PC-3, 53 µM (inactive); in the assay with SK-MEL-2, 59.3 µM (inactive); with SNB-19, 28.4 µM (inactive). Moreover, the GI50 was 33.6 µM (inactive) in the assay on SF-295; > 100 µM (inactive) in the assay with KM-20L2; 35.6 µM (inactive) in the assay on TK-10; 75.3 µM (inactive) in the assay on OVCAR-4; > 100 µM (inactive) in the assay with CCRF-CEM; > 100 µM (inactive) in the assay on SW-620. For the same compound, the GI50 was 8.81 µM (inactive) with Hs-578T and > 100 µM (inactive) in the assay on MOLT-4.

As to `CCCCCCCCCCCCC(SCCNC(=O)CCNC(=O)C(O)C(C)(C)COP(=O)(O)OP(=O)(O)OCC1OC(n2cnc3c(N)ncnc32)C(O)C1OP(=O)(O)O)C(=O)NCC(N)=O` (centres undefined), the GI50 was 79.6 µM (inactive) in the assay with NCI-H226; > 100 µM (inactive) in the assay with 786-0; > 100 µM (inactive) in the assay on A498; 49.2 µM (inactive) in the assay with COLO 205; > 100 µM (inactive) in the assay with SF-268; > 100 µM (inactive) in the assay on KM12. The GI50 is 2.6 µM (inactive) in the assay with SNB-75; above 100 µM in the assay with HCT-15; > 100 µM (inactive) with SK-MEL-2; 66.7 µM (inactive) with SNB-19; > 100 µM (inactive) in the assay on SF-295; > 100 µM (inactive) with KM-20L2. In addition, the GI50 in the assay with TK-10, in the assay on OVCAR-4, with CCRF-CEM and with SW-620 was > 100 µM (inactive) each time.

As to `O=C(N/C(=C\c1ccc(Br)cc1)c1nc2ccccc2s1)c1ccccc1`, the GI50 in the assay with NCI-H226 was > 100 µM (inactive); with 786-0 it was > 100 µM (inactive); in the assay on A498, 90.8 µM (inactive); in the assay on COLO 205, > 100 µM (inactive); with SF-268 it was 36.2 µM (inactive); with KM12, > 100 µM (inactive). In addition, the GI50 was > 100 µM (inactive) with SNB-75; 46.1 µM in the assay with HCT-15; > 100 µM (inactive) with SK-MEL-2; 47 µM (inactive) in the assay on SNB-19; > 100 µM (inactive) in the assay on KM-20L2; > 100 µM (inactive) with TK-10. Besides, the GI50 was 30.8 µM (inactive) in the assay on OVCAR-4, 21.5 µM (inactive) in the assay with CCRF-CEM, > 100 µM (inactive) with SW-620 and 29.9 µM (inactive) in the assay with MOLT-4.

The values above are taken from ChEMBL document CHEMBL1201862, “PubChem BioAssay data set” (2004).
